The record followed here is US20240287525A1, “COMPOSITIONS AND METHODS FOR TREATING CANCER” (OSLO UNIVERSITETSSYKEHUS HF, priority 2021, published 2024).

This series has as its system MTHFD2. Description: MTHFD2 knockdown efficiency by qPCR and Western analyses after siRNA transfection. To be noted: LNCaP cells, mRNA by qRT-PCR. In kind it is cell-based. As for the experimental part: FIG. 1: MTHFD2 knockdown inhibits growth of PCa cells, PDX-derived organoids, and tumor xenografts. A. MTHFD2 knockdown efficiency was determined in LNCaP and DU145 cells that were transfected with either scrambled siRNA or two independent MTHFD2-specific siRNAs for 48 hours by both qPCR and Western analyses. B. LNCaP, VCaP, or 22Rv1 cells transfected with control or MTHFD2-specific siRNAs were cultured for the indicated times, and cell numbers were determined by trypan blue staining. *p<0.01. MTHFD2 knockdown hinders colony (C-D) and prostatosphere (E) formation ability of PCa cells. F. Viability of normal prostate cells is not affected by MTHFD2 knockdown. G. MTHFD2 expression and knockdown efficiency in various LuCaP organoids were assessed by Western analysis.
FIG. 4: A. LNCaP cells were transfected with MTHFD2 (siMTHFD2 #1) or non-targeting control siRNAs. Cells were cultured for the indicated time points, collected, and MTHFD2 mRNA levels were determined by qRT-PCR. […] B. LNCaP and DU145 cells were reverse transfected with either control siRNA or two independent siRNAs against MTHFD2. After 48 hours, relative cell viability was determined using the CCK8 assay. C. Bar graph showing quantification of PDX derived organoids representing the number of organoids per field in FIG. 1H.
Briefly, cells were reverse transfected using Lipofectamine RNAiMAX transfection reagent (ThermoFisher) and plated into 96-well or 6-well plates. Cells in 6-well plates were cultured for the indicated times, trypsinized, stained with trypan blue, and counted using a hemocytometer. […] Cells plated into the 96-well plates were cultured for 48 hrs and cell viability was measured using the CCK-8 kit (Bimake, Munich, Germany).
RNA extraction, reverse transcription and quantitative polymerase chain reaction (qPCR) were performed as described previously (Sheng X, Arnoldussen Y J, Storm M. Tesikova M, Nenseth H Z, Zhao S, et al. Divergent androgen regulation of unfolded protein response pathways drives prostate cancer. EMBO Mol Med 2015; 7:788-801). […]
Background: In qPCR the cycle at which signal appears reflects the starting amount.

For the substance “siMTHFD2-2: MTHFD2-specific siRNA CAGGCCAGCTCAAGAAGCAAA; location 1140; positive control in Example 3 (chain 2 CAGGCCAGCUCAAGAAGCAAA; chemistry not given here; one strand in two spellings)”, the “MTHFD2 knockdown, maximal” value (72 hours post-transfection) is on record as approximately 80%. For the same substance, where the note is “time course after transfection”, the “return of MTHFD2 to basal levels” value is not above 12 days and the “time MTHFD2 remained significantly downregulated” value is given as “more than one week”.
